Reference: patent US8309107B2, “Stable solutions of orlistat for pharmaceutical dosage forms” (Banner Pharmacaps, Inc., priority 2008, dated 2012)

Experiment: Compatibility of orlistat with surfactants
Type: physicochemical
Conditions: Chremophor EL emulsifying agent

CCCCCCCCCCC[C@@H](C[C@@H]1OC(=O)[C@H]1CCCCCC)OC(=O)[C@H](CC(C)C)NC=O [orlistat]
effect of surfactant on degradation of orlistat: accelerate degradation
